# Results taken from ChEMBL document CHEMBL1201862, “PubChem BioAssay data set” (2004).
# The source made the active and inactive calls. Rule as the data show it, for most assays here: actives have a measured EC50 and inactives only a lower limit.
# Assays:
# [1] = target: T1, Nuclear receptor subfamily 0 group B member 1 (Homo sapiens, UniProt P51843); assay: Luminescence-based cell-based high throughput dose response assay for inhibitors of the orphan nuclear receptor subfamily 0, group B, member 1 (DAX1; NR0B1). [Related pubchem assays (depositor defined):AID504766, AID504790]; type: functional
# T1 sequence (P51843 whole entry): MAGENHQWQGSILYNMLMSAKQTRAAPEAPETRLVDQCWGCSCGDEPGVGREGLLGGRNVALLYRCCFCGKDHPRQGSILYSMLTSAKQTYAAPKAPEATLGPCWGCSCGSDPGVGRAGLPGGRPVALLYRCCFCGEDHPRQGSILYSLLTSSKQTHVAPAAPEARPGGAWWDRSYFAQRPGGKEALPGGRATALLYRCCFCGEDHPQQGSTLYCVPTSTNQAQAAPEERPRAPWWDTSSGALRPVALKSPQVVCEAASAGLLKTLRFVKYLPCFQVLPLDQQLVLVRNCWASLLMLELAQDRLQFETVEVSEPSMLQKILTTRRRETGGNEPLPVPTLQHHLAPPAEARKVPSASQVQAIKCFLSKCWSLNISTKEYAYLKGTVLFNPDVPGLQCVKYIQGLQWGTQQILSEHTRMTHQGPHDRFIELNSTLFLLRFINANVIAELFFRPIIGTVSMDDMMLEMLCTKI
# HEK293 = assay: cells; type: functional, cell-based; conditions: Homo sapiens
# [2] = Luminescence Cell-Based Dose Response HTS to Identify Inhibitors of 5'UTR Stem-Loop Driven Prion Protein mRNA Translation in H4 Neuroglioblastoma Cells. [Related pubchem assays: 1827 (Project Summary), 1813 (Primary HTS)]; type: functional
# BJ [3] = assay: BJ-TERT fibroblast viability loss – cell-based, RAS-independent, luminescence, dose response (AID 1933); type: functional; conditions: Homo sapiens
# [4] = alpha-synuclein stem-loop luciferase translation blockers – H4 neuroglioma cells, luminescence, confirmation (AID 1988); type: functional, cell-based
# BJ [5] = assay: growth inhibition of engineered Ras-driven BJ cells – cell-based, alamar blue fluorescence, cherrypicked samples, dose response (AID 2631); type: functional; conditions: Homo sapiens;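 also: confirmatory dose-response assay in RAS-dependent BJ fibroblasts engineered with TERT, LT and ST, with cytotoxicity read by fluorescence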
# [6] = luciferase reporter signal suppression in cells – H4 neuroglioma cells, luminescence, dose response (AID 1990); type: functional, cell-based
# BJ [7] = assay: cells; type: functional, cell-based; conditions: Homo sapiens
# [8] = DRD fibroblast viability loss – cell-based, non-viral oncogenic, luminescence, dose response (AID 1934); type: functional; conditions: Homo sapiens
# BJ [9] = assay: BJ-TERT-LT-ST fibroblast viability loss – cell-based, RAS-independent, luminescence, dose response (AID 1935); type: functional; conditions: Homo sapiens;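 also: BJ fibroblasts immortalized with TERT plus LT and ST oncogenes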
# [10] = target: T2, Type-1 angiotensin II receptor (Homo sapiens, UniProt P30556); assay: antagonism of angiotensin II type 1 receptor – cell-based, uHTS hits, selectivity assay for APJ receptor antagonist project, dose response (AID 463214); type: functional;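 also: antagonist potency against angiotensin II stimulated AT1 response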
# T2 sequence (P30556 whole entry): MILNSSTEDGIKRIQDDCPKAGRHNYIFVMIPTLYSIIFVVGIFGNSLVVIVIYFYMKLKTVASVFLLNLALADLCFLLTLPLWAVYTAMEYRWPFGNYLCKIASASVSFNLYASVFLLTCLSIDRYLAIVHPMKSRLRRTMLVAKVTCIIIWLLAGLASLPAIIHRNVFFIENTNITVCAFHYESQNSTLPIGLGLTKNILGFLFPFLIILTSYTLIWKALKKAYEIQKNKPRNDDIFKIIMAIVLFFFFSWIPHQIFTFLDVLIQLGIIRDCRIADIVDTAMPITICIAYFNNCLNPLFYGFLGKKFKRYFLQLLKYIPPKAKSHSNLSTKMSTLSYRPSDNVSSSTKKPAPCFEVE
# Beta-galactosidase = Beta-galactosidase (Escherichia coli, UniProt Q8VNN2); assay: PubChem AID 485352; type: functional
# [11] = target: T3, Short transient receptor potential channel 4 (Mus musculus, UniProt Q9QUQ5); assay: potency of mouse TRPC4 calcium flux blockers – cell-based, HEK293 TRPC4/mu-opioid, DAMGO stimulus, Fluo-4, dose response (AID 492994); type: functional
# T3 sequence (Q9QUQ5 whole entry): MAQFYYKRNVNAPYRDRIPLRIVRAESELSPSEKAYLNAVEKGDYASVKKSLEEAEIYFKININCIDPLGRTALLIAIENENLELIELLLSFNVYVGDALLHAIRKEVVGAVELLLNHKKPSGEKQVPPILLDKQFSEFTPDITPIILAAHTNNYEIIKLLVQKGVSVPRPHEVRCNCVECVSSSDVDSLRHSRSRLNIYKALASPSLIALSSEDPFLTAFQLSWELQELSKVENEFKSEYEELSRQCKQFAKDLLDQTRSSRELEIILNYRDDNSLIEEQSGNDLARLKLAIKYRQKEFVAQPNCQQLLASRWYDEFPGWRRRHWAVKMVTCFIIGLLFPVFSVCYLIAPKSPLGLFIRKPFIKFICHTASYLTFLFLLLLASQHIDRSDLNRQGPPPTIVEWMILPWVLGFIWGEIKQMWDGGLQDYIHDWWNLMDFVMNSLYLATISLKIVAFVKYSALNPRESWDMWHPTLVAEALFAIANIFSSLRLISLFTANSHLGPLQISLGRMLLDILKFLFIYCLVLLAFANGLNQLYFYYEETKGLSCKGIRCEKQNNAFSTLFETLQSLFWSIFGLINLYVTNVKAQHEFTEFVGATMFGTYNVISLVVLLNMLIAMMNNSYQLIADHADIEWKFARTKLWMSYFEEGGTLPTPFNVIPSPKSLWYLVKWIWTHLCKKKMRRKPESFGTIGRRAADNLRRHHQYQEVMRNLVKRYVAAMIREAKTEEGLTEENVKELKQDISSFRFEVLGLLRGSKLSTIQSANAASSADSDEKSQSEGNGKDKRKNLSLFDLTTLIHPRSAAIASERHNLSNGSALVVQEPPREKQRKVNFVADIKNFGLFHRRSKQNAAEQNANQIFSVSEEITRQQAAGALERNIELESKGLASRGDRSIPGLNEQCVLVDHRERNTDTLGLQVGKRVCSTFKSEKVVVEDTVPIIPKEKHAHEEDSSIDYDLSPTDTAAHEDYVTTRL
# Beta-galactosidase, sequence (Q8VNN2 whole entry): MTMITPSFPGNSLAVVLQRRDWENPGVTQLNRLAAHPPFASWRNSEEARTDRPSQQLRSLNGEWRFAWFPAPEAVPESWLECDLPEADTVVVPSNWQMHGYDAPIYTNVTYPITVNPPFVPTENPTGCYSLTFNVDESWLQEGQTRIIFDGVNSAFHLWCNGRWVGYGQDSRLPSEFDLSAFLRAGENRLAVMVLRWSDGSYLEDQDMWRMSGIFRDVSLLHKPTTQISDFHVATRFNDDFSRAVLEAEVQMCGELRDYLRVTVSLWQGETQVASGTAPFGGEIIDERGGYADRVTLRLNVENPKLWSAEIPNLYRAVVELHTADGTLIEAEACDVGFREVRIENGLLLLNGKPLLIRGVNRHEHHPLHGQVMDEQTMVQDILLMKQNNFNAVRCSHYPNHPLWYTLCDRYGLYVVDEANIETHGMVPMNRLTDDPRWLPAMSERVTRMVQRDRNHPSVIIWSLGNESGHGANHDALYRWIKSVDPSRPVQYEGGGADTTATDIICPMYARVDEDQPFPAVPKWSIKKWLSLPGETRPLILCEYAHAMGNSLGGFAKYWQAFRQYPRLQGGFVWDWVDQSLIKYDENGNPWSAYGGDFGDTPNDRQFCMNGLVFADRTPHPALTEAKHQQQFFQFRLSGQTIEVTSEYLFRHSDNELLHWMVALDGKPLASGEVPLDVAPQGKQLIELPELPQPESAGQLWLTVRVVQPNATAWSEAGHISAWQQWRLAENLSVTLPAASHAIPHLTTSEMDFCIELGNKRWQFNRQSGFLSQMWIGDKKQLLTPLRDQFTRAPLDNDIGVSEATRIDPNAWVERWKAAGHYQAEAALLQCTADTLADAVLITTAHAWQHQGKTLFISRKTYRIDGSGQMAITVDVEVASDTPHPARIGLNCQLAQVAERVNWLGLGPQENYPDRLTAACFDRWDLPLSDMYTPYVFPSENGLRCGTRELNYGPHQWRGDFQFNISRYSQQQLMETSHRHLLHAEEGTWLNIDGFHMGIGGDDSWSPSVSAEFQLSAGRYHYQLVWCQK
smiles,measurement,setting,value
O=C(O)Cc1sc(Nc2ccccc2)nc1-c1cccs1,IC50,[1],> 67.5 µM (inactive)
same,IC50,HEK293,> 67.5 µM (inactive)
Cc1ccnc(NC(=O)c2ccccc2NC(=O)c2ccc(Cl)cc2Cl)c1,EC50,[2],> 120 µM (not active)
same,EC50,BJ [3],2.87 µM (active)
same,EC50,[4],> 120 µM (not active)
same,EC50,BJ [5],0.573 µM (active)
same,EC50,[6],10.6 µM (inconclusive)
same,EC50,BJ [7],34.8 µM (inconclusive)
same,EC50,[8],2.83 µM (active)
same,EC50,BJ [9],4.38 µM (active)
CC1CCCN(CC(=O)c2ccc(Cl)c(Cl)c2)C1 (stereo not drawn),IC50,[10],4.76 µM (active)
same,EC50,Beta-galactosidase,30.8 µM (active)
Cc1cc(N2CCN(c3ncccn3)CC2)nc2ccccc12,IC50,[11],469 µM (active)
